Measurements reported in PMC11984924, “Dipeptidic Phosphonates: Potent Inhibitors of Pseudomonas aeruginosa Elastase B Showing Efficacy in a Murine Keratitis Model” (Advanced Science, 2025).

What was measured:
sodium channel = assay: SafetyScreen44: sodium channel binding; set-up: species or system human; conditions: 100 µM
Text: (§1) Moreover, we explored the safety profile of frontrunner (R)‐30 in more detail in order to detect additional crucial off‐target interactions. For this purpose, we employed the SafetyScreen44 in vitro panel comprising selected binding, inhibition and uptake assays.^[ [35] ^] The panel is a specialized pharmacological profiling tool that tests compounds against 44 key molecular targets, aiming to identify potential safety risks early in drug discovery. […]
(§2) The off-target Safety Screen44TM was performed by the CRO Eurofins Cerep SA (Celle-
(§3) L'Evescault, France) according to their protocols.[13] […]
(§4) MMP-1 MMP-2 MMP-3 TACE (ADAM17)
(§5) Compound [% inhibition at [% inhibition at [% inhibition at [% inhibition at 100

[1] = system: P. aeruginosa strain PA54 keratitis; assay: Murine Pseudomonas keratitis model; type: in vivo, mouse
Procedure: Based on our previous findings on target engagement in a murine pneumonia model in combination with a standard‐of‐care antibiotic,^[ [30] ^] we applied the dipeptide (R)‐30 alone and in combination with the commonly used antibiotic meropenem.^[ [9] ^] The keratitis model was carried out using aged female C57BL/6 mice, as previously published.^[ [37] ^] For infection, 5*10^7 colony forming units (CFUs) of PA54 were topically administered on denuded, mechanically harmed corneas. Treatments with meropenem, (R)‐30, or meropenem in combination with (R)‐30 were performed every 8 h for 72 h (first treatment at 6 h post infection). Each of the in total nine 5 µL‐doses contained 1 mg/mL (R)‐30 and/or 0.5 mg mL^−1 meropenem. Sham‐treated mice received 5 µL‐doses of the vehicle (0.9% saline and 1% DMSO) at the time points indicated above, and uninfected eyes received no treatment. […]
Animals: The animal experiments were approved by Saarland University’s Animal Welfare Committee (Application number: 17/2021) and conducted in accordance with German and European recommendations and guidelines for the ethical use of animals. The laboratory animals were all C57BL/6N female eight to eleven months old mice. Keeping in specific pathogen-free conditions was provided. Unlimited access to water and show was secured.
Temperature was closely maintained around 22 °C and relative air humidity around 50%. Light and darkness alternated at twelve-hour intervals. All laboratory animals were purchased from Charles River GmbH, Sulzfeld, Germany.
P. aeruginosa: The P. aeruginosa strain PA54 was employed to induce an experimental bacterial keratitis in the aforementioned C57BL/6N mice. The strain PA54 was isolated from human infections and collected at Saarland University Medical Center’s Institute for Medical Microbiology and Hygienics (IMMH) in 2009. According to Magiorakos et al., PA54 can be classified as multidrug-resistant due to its lacking sensibility to the anti-pseudomonal cephalosporins ceftazidime and cefepime, the anti-pseudomonal fluoroquinolones ciprofloxacin and levofloxacin, the […] fosfomycin, and the aminoglycoside gentamicin.[18] The minimum inhibitory concentration (MIC) of the reserve antibiotic meropenem (meropenem trihydrate, Sigma) was 1 µg/mL (sensitivity limit = 2 µg/mL). The exoU- and exoT-positivity of the PA54 strain, foregrounds its keratitogenic potential.
Inoculum: The P. aeruginosa strain PA54 is routinely grown overnight on blood agar (TrypticaseTM Soy Agar, 5% sheep blood, BD, Heidelberg, Germany) at 37 °C. To obtain a stationary phase cell inoculum, a freshly grown colony was inoculated in tryptic soy broth (TSB; BD, Heidelberg, Germany) and cultured at 37 °C and 150 rounds per minute (rpm) for 16 h.
Then, 2 mL were centrifuged at 13,200 rpm at rt for 2 min, whereupon cells were resuspended in spent medium to an OD600 of 10 (∼1×1010 CFU/mL). Short storage on ice followed, before the infection procedure started.
Infection Procedure: Anesthesia and infection were performed as previously published. Briefly, fentanyl (Hameln Pharma Plus GmbH, Hameln, Germany), midazolam hydrochloride (Midazolam-Hameln, 5 mg/mL, Hameln pharma GmbH, Germany) and medetomidine hydrochloride (Domitor, Orion Corporation, Espoo, Finland) were dissolved in 0.9% NaCl (NaCl 0.9%, Ecotainer 500 mL, B. Braun, Melsungen, Germany), dosed at 0.05 mg/kg, 5 mg/kg and 0.5 mg/kg body weight, respectively, and applied by intraperitoneal injection. Analgesia (Carprofen, 5 mg/kg body weight, Zoetis Deutschland GmbH, Berlin, Germany) was ap plied subcutaneously. Lacrimation was stopped with 10 µL of a 0.6% acetylcysteine solution (Pharmacy of Saarland University Hospitals, Homburg, Germany). Local analgesia (0.5% proxymetacaine hydrochloride, Proparakain -POS Augentropfen, Ursapharm Arzneimitt el GmbH, Saarbrücken, Germany) was eye-dropped and removed after 60 seconds. The blunt […]

[2] = target: T1, 5‐hydroxytryptamin transporter (5‐HTT) (Homo sapiens, UniProt P31645); assay: SafetyScreen44: 5-HTT binding
T1 construct: Eurofins Cerep SA (CRO)
T1 sequence (P31645 whole entry): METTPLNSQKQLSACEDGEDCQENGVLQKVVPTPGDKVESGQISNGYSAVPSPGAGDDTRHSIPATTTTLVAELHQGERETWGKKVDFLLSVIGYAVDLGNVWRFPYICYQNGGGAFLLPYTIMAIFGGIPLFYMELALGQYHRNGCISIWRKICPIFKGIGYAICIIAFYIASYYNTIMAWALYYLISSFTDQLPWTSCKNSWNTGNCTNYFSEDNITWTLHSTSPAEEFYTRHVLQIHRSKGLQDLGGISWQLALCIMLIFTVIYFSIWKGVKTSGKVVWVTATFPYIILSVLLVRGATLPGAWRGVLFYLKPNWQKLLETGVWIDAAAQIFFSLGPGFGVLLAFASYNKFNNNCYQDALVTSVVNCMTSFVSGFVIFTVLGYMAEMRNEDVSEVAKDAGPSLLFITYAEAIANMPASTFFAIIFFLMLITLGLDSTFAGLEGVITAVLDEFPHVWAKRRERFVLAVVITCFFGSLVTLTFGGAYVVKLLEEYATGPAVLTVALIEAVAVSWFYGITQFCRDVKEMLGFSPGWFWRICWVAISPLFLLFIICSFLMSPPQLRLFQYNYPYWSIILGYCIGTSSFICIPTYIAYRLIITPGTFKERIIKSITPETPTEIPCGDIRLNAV
Text: as §1, §2, §3, §4, §5

zebrafish embryos = assay: Zebrafish embryo toxicity; type: in vivo; conditions: up to 100 µM, up to five days post fertilization
Procedure: Table S8: Percent (%) inhibition of the metabolic activity of three human cell lines HepG2 (hepatocellular carcinoma cells), HEK293 (human embryonic kidney 293 cells) and A549 (lung carcinoma epithelial cells). Results are means and SD of at least two independent ex periments.
3.10 Evaluation of Zebrafish embryo toxicity
The experiment was performed according to a procedure described in the literature with minor modifications using zebrafish embryos of the AB wild -type line at 1 day post fertilization (dpf). A detailed protocol has been given in our recent publication.[16]
Starting exposure ar 2 dpf. Ten larvae were tested for each condition. Dpf: days post fertilization.
3.11 Tolerability study in male CD1 mice
This in vivo experiment was carried out at the CRO Selvita (Zagreb, Croatia). The study was performed in an AAALAC I- approved Facility. The standard study plan relating to this study was reviewed by the Ethics Committee (CARE- Zagreb) as required by International Laws/Regulations and Croatian Low on Animal Welfare (“The Animal Protection Act”, Official Gazette, NN 135/06 and NN 37/13) and Animal Welfare Officer. Animals were kept in solid […]
bottom cages ([…] S.p A., Italy, Type III polysulphone cage); 425 mm x 266 mm x 180 mm; 3 animals in each cage. The animals were kept on 4 cm thick layer of corn cob grit, […]
(1 picture or pasted object on this page, not shown here)

CC(=O)c1ccc(NC(=O)[C@@H](NC(=O)[C@@H](CC(C)C)P(=O)(O)O)C(C)C)cc1 [(R)‐30]
sodium channel binding inhibition (sodium channel): 91.1% | effect on bacterial loads in the eye ([1]; day 3 post infection): no clear effect on the bacterial loads | IL‐1β levels in eye homogenate ([1]; day 3 post infection, compared to sham treatment / uninfected eyes): significant reduction | KC levels in eye homogenate ([1]; day 3 post infection, compared to uninfected eyes): significantly higher amounts of this chemokine | median clinical keratitis score ([1]; day three post infection, topical every 8 h for 72 h, 1 mg/mL (R)-30 and/or 0.5 mg/mL meropenem): 4 | inhibition at 100 µM [2]: 84.8%

CC(=O)c1ccc(NC(=O)[C@@H](NC(=O)C(CC(C)C)P(=O)(O)O)C(C)C)cc1 (stereo partly shown) [compound 30]
Zebrafish embryo toxicity (zebrafish embryos): no signs of toxicity
